{
  "source": "patent US7049334B2",
  "about": "“Enhancement of learning and memory and treatment of amnesia” (priority 2001, dated 2006)",
  "key": {"[1]": {"test_system": "Schaffer collateral-CA1 pathway of rat hippocampal slices", "assay": "LTP induction in Schaffer collateral-CA1 pathway of hippocampal slices (fEPSP slope)", "type": "cell-based, Wistar rats", "conditions": "for fEPSP slope: 1.6 μM perfused 6 min (3 min before and 3 min after tetanus)"}, "rats (spatial memory)": {"test_system": "rats (spatial memory)", "assay": "Morris water maze", "type": "in vivo", "procedure": "Morris water maze: Morris water maze was performed in a circular pool (224 cm in diameter, 46 cm in height) located in a room with distinctive visual cues. Water was filled to a depth of 36 cm and a transparent plastic platform (25×25 cm, 32 cm in height) was located at the center of a fixed quadrant. Rats were trained for two days in the task environment: free-swimming in the pool without the transparent plastic platform. Each training session was 2 min and the rats were picked up from the pool by an experimenter. Then, rats received 4 consecutive daily training trials for the following six days. During each training trial, each rat was placed into the water randomly from one of the quadrants. The rat had to swim until it climbed onto the plastic platform submerged underneath the water. The time duration from being placed into the water to climbing onto the plastic platform was recorded and defined as escape latency. […] Each rat stayed on the platform for 60 s, which also served as the interval of trial. Compound 1 (1 mg/kg) or vehicle was daily injected to each rat 10 min before the first training trial. After the last training trial of each day, each rat was dried by a towel, and an electric heater was placed in its home cage.\nSubstantial evidence implicates the hippocampus in acquisition and retention of spatial information. See, e.g., Ohon et al. (1979) Behav. Brain Sci. 2: 316–365; and Barnes (1988) Trend Neurosci. 11: 163–169. The effect of Compound 1 on the acquisition of spatial memory in the Morris water maze was tested. Rats received 4 consecutive training trials every day. Compound 1 (1 mg/kg) was daily injected (i.p., 1 mg/kg) 10 min before the first trial of training. […] The escape latencies of 2˜4 trials were 93.8±8.7 s, 79.3±12/3 s and 57.6±12.5 s for a control group, and 50.4±10.2 s, 47.3±6.8 s and 30.3±10.3 for the Compound 1 group (n=10), respectively. The escape latencies of the first trial on the following 3 training days were also markedly shortened in the Compound 1 group. The escape latencies were 91.1±9.8 s, 47.1±3.9 s and 35.3±6.1 s for the control group, and 55.4±12.8 s, 15.3±2.1 s, and 13.4±1.7 s for the Compound 1 group (n=10), respectively. […] The escape latency is shorter in the Compound 1 group throughout the whole experimental period up to 21 days although Compound 1 was only administered […] for 4 days. The mean escape latency on the day-21 is 13.5±1.8 s and 6.0±0.5 s (n=10 each) for the control group and the Compound 1 group, respectively. From results shown above, Compound 1 is a promising drug for improving learning and memory. Compound 1 was mixed with 1.25% carboxymethylcellulose (CMC) and orally delivered to stomach (10 mg/kg) directly 30 min before the first trial for 6 successive days.\nSince L-NAME antagonized Compound 1-induced LTP enhancement in hippocampal slices, in vivo experiments were performed to test the effect of L-NAME on the improved learning and memory provoked by Compound 1. In these experiments, rats chronically implanted with cannulae were injected intracerebroventrically with L-NAME (1 mmole/10 mL) or saline 10 min before the first trial of daily training, concomitant with i.p. injection of Compound 1 (1 mg/kg). […] Intracerebroventricular administration of KT 5823 also impaired the Compound 1-induced enhancement."}, "[2]": {"test_system": "hippocampal slices taken from young rats", "assay": "Plasticity induced by low-frequency stimulation (LTD) in hippocampal slices", "type": "cell-based, Wistar rats", "procedure": "After decapitation, brains of either adult ([…], for the induction of long-term potentiation) or young (2–3 weeks old, for the induction of long-term depression) Wistar rats were rapidly removed, and the hippocampus was dissected out. Transverse hippocampal slices (450 μm thickness) were immediately placed in an ice-cold cutting buffer containing 124 mM NaCl, 3 mM KCl, 1.0 mM Na2HPO4, 25 mM NaHCO3, 0.5 mM CaCl2, 5.0 mM MgSO4, 10 mM glucose, saturated with 95% O2 and 5% CO2. The slices were then maintained in an interface chamber at room temperature, and perfused at flow rate of 1–2 mL/min with artificial cerebrospinal fluid (ACSF). The composition of ACSF contained 124 mM NaCl, 4.4 mM KCl, 1.0 mM Na2HPO4, 25 mM NaHCO3, 2.0 mM or 2.5 mM CaCl2, 1.0 mM MgSO4, 10 mM glucose, gassed with 95% O2 and 5% CO2. The field Excitatory Postsynaptic Potentials (fEPSP) was evoked by test pulses through a bipolar stimulating electrode placed on the Schaffer collateral/commissural pathway, and recorded from the stratum radiatum of CA1 using a glass micropipette electrode (5–10 MΩ) filled with 2 M NaCl. The test pulse duration was 100 μsec, and test responses were elicited at 0.02 Hz. To record field potentials in the cortico-amygdala pathway, a stimulating electrode was placed in the external capsule, which contained fibers from the auditory cortex to the lateral amygdala. Bicuculine (10 μM) was present in the perfusion solution when the fEPSPs of amygdala were recorded. To increase the effectiveness of fused pyrazolyl compounds that were applied through the perfusion system, the ACSF level in the recording chamber was sufficiently high to cover the hippocampal slices but not to float them. All fused pyrazolyl compounds were perfused in ACSF.\nEvoked fEPSPs were recorded and data were analyzed. The initial slope of the fEPSPs was calculated, and the data were expressed as percentages of the average of the base-line slope of the fEPSPs.\nCompound 1 on plasticity induced by low-frequency stimulation (LFS): LFS (900 pulses at 1 Hz) was delivered to hippocampal slices taken from young rats ([…]) to induce long-term depression (LTD). Stimulation of hippocampal slices at 1 Hz for 3 min produced no LTD of synaptic transmission. However, this short-duration LFS induced significant LTD in the presence of Compound 1 (83.4±10.9%, n=3). […] A weaker electrical stimulation at 0.02 Hz was delivered in the presence of both nitric oxide donor nitroprusside ([…]) and Compound 1 (1.6 μM). Simultaneous perfusion of the nitric oxide donor nitroprusside (30 μM) and Compound 1 (1.6 μM) induced LTD."}, "[3]": {"conditions": "i.p. 1 mg/kg daily 10 min before first trial, n=10"}},
  "data": [
    {"smiles": "OCc1ccc(-c2nn(Cc3ccccc3)c3ccccc23)o1", "note": "[Compound 1, 1-benzyl-3-(5′-hydroxymethyl-2′-furyl)-indazole]", "values": [
      {"measurement": "LTP when compound added after tetanus", "setting": "[1]; 1.6 μM added to ACSF 10 min after 2 trains of strong tetanus (100 Hz/1 sec)", "result": "not further potentiated"},
      {"measurement": "fEPSP slope, simultaneous application of AP-5 and MCPG", "setting": "[1]; AP-5 and MCGP applied simultaneously with Compound 1", "result": "111.5±12.3", "unit": "%"},
      {"measurement": "LTP induced by Compound 1, concomitant perfusion with L-NAME", "setting": "[1]; L-NAME 300 μM (nitric oxide synthase inhibitor)", "result": "significantly attenuated"},
      {"measurement": "LTP induced by Compound 1, with Zinc protoporphyrin", "setting": "[1]; Zinc protoporphyrin 1 μM (heme oxygenase inhibitor)", "result": "did not affect"},
      {"measurement": "fEPSP", "setting": "[1]; fEPSP slope 60 min after weak tetanus (50 Hz, 0.5 s), 1.6 μM perfused 3 min before and 3 min after tetanus", "result": 172.9, "unit": "%"},
      {"measurement": "fEPSP slope", "setting": "[1]; strong tetanus (two 100 Hz, 1 sec trains 20 sec apart), at 50 min after tetanus, % of base-line slope", "result": "404.7±34.9", "unit": "%"},
      {"measurement": "fEPSP slope", "setting": "[1]; weak tetanus (20 Hz, 0.5 sec train), at 1 hr", "result": "172.9±10.7", "unit": "%"},
      {"measurement": "fEPSP slope, co-perfused with AP5", "setting": "[1]; weak tetanus (50 Hz/0.5 s), with AP5 100 μM (NMDA receptor antagonist)", "result": "142.1±13.5", "unit": "%"},
      {"measurement": "fEPSP slope, co-perfused with KT5823", "setting": "[1]; weak tetanus (50 Hz/0.5 s), with KT 5823 2 μM (protein kinase G inhibitor)", "result": "112.9±5.4", "unit": "%"},
      {"measurement": "fEPSP slope, co-perfused with ODQ", "setting": "[1]; weak tetanus (50 Hz/0.5 s), with ODQ 5 μM (soluble guanylyl cyclase inhibitor)", "result": "107.8±3.9", "unit": "%"},
      {"measurement": "LTP induced by Compound 1, co-perfused with MCPG", "setting": "[1]; with MCPG 100 μM", "result": "reduced"},
      {"measurement": "enhanced learning and memory induced by Compound 1, with L-NAME", "setting": "rats (spatial memory); L-NAME intracerebroventricular 10 min before first trial, with i.p. Compound 1 (1 mg/kg)", "result": "significantly blocked"},
      {"measurement": "escape latency, trial 2 of first training day", "setting": "rats (spatial memory); [3]", "result": "50.4 ± 10.2", "unit": "s"},
      {"measurement": "escape latency, trial 3 of first training day", "setting": "rats (spatial memory); [3]", "result": "47.3 ± 6.8", "unit": "s"},
      {"measurement": "escape latency, trial 4 of first training day", "setting": "rats (spatial memory); i.p. 1 mg/kg daily 10 min before first trial, n=10, in s (unit assumed)", "result": "30.3±10.3"},
      {"measurement": "escape latency of the first trial, first of the following 3 training days", "setting": "rats (spatial memory); i.p. 1 mg/kg, n=10", "result": "55.4 ± 12.8", "unit": "s"},
      {"measurement": "escape latency of the first trial, second of the following 3 training days", "setting": "rats (spatial memory); i.p. 1 mg/kg, n=10", "result": "15.3 ± 2.1", "unit": "s"},
      {"measurement": "escape latency of the first trial, third of the following 3 training days", "setting": "rats (spatial memory); i.p. 1 mg/kg, n=10", "result": "13.4 ± 1.7", "unit": "s"},
      {"measurement": "mean escape latency on day-21", "setting": "rats (spatial memory); i.p. 1 mg/kg, n=10", "result": "6.0 ± 0.5", "unit": "s"},
      {"measurement": "Compound 1-induced enhancement, with KT 5823", "setting": "rats (spatial memory); intracerebroventricular KT 5823", "result": "impaired"},
      {"measurement": "effect of oral administration on memory", "setting": "rats (spatial memory); oral 10 mg/kg in 1.25% CMC, 30 min before first trial for 6 successive days", "result": "promoted short-term and long-term memory"},
      {"measurement": "plasticity with perfusion during LFS", "setting": "[2]; 1.6 μM perfused for 15 min during LFS (900 pulses at 1 Hz)", "result": "reversed the LTD plasticity into LTP"},
      {"measurement": "potentiation of fEPSP at 0.02 Hz stimulation, substance alone", "setting": "[2]; 0.02 Hz stimulation, alone", "result": "produced no potentiation"},
      {"measurement": "plasticity at 0.02 Hz with nitric oxide donor nitroprusside", "setting": "[2]; 0.02 Hz stimulation, simultaneous perfusion of nitroprusside (30 μM) and Compound 1 (1.6 μM)", "result": "induced LTD"},
      {"measurement": "fEPSP (LTD) after short-duration LFS", "setting": "[2]; 1 Hz for 3 min, in the presence of Compound 1, young rats", "result": "83.4±10.9", "unit": "%"}
    ]}
  ]
}
